Data on 62 molecules can be found in patent US7504400B2, “MTP inhibiting aryl piperydines or piperazines substituted with 5-membered heterocycles” (Janssen Pharmaceutica N.V., priority 2004, dated 2009).

A word on the IC50: it is the concentration at which inhibition is half-maximal.

The assay relates to Secretion of ApoB. The assay can be described thus: Quantification of the secretion of ApoB in HepG2 cells. In kind it is cell-based. Particulars: Homo sapiens, HepG2, 24 h, 24 hours of incubation with test compound, immunoprecipitation of apoB from medium, read-out: pIC50 value (=-log IC50 value), secretion of ApoB (converted). The procedure: HepG2 cells were cultured in 24-well plates in MEM Rega 3 containing 10% fetal calf serum. At 70% confluency, the medium was changed and the test compound or carrier (DMSO, 0.4% final concentration) was added. After 24 hours of incubation, the medium was transferred to Eppendorf tubes and cleared by centrifugation. A sheep antibody directed against either apoB was added to the supernatant and the mixture was kept at 8° C. for 24 hours. Then, rabbit anti-sheep antibody was added and the immune complex was allowed to precipitate for 24 hours at 8° C. The immunoprecipitate was pelleted by centrifugation for 25 minutes at 1320 g and washed twice with a buffer containing 40 mM Mops, 40 mM NaH2PO4, 100 mM NaF, 0.2 mM DTT, 5 mM EDTA, 5 mM EGTA, 1% Triton-X-100, 0.5% sodium deoxycholate (DOC), 0.1% SDS, 0.2 μM leupeptin and 0.2 μM PMSF. Radioactivity in the pellet was quantified by liquid scintillation-counting. The IC50 values are usually converted to pIC50 values (=−log IC50 value) for ease of use.
As to `C=CCNC(=O)C(CN1CCN(c2ccc(-n3cnn(C(C)C)c3=O)cc2)CC1)c1ccccc1` (centres unmarked) [Compound 103], the 50% inhibitory concentration (IC50) was 0.0316 to 0.316 µM.
`CC(C)n1ncn(-c2ccc(N3CCN(CC(C(=O)NC4CC4)c4ccccc4)CC3)cc2)c1=O` (centres unmarked) [Compound 104]: the concentration for half-maximal inhibition (IC50) was 0.316 to 3.16 µM.
Under `COCCNC(=O)C(CN1CCN(c2ccc(-n3cnn(C(C)C)c3=O)cc2)CC1)c1ccccc1` (centres unmarked) [Compound 105] stands 0.316 to 3.16 µM; under `CCCCNC(=O)C(CN1CCN(c2ccc(-n3cnn(C(C)C)c3=O)cc2)CC1)c1ccccc1` (centres unmarked) [Compound 106], 0.0316 to 0.316 µM; under `CC(C)CNC(=O)C(CN1CCN(c2ccc(-n3cnn(C(C)C)c3=O)cc2)CC1)c1ccccc1` (centres unmarked) [Compound 107], 0.316 to 3.16 µM.
With `COC(CNC(=O)C(CN1CCN(c2ccc(-n3cnn(C(C)C)c3=O)cc2)CC1)c1ccccc1)OC` (centres unmarked) [Compound 108] the figure was 0.316 to 3.16 µM; with `CCCCCNC(=O)C(CN1CCN(c2ccc(-n3cnn(C(C)C)c3=O)cc2)CC1)c1ccccc1` (centres unmarked) [Compound 109], 0.0316 to 0.316 µM; with `CCC(C)n1ncn(-c2ccc(N3CCN(C(C(=O)NCCC#N)c4ccccc4)CC3)cc2)c1=O` (centres unmarked) [Compound 110], 0.0316 to 0.316 µM.
For the molecule `CCCCCNC(=O)C(c1ccccc1)N1CCN(c2ccc(-n3c(C)nn(C(C)C)c3=O)cc2)CC1` (centres unmarked) [Compound 111], the concentration for half-maximal inhibition (IC50) is 0.316 to 3.16 µM.
Turning to `Cc1nn(C(C)C)c(=O)n1-c1ccc(N2CCN(C(C(=O)Nc3ccccc3)c3ccccc3)CC2)cc1` (centres unmarked) [Compound 112], the half-inhibitory concentration (IC50) was 0.316 to 3.16 µM.
Regarding `CCNC(=O)C(c1ccccc1)N1CCN(c2ccc(-n3ncn(C(C)C)c3=O)cc2)CC1` (centres unmarked) [Compound 113], the IC50 was 0.0316 to 0.316 µM.
Turning to `CCCNC(=O)C(c1ccccc1)N1CCN(c2ccc(-n3ncn(C(C)C)c3=O)cc2)CC1` (centres unmarked) [Compound 114], the IC50 was 0.316 to 3.16 µM.
With `CC(C)NC(=O)C(c1ccccc1)N1CCN(c2ccc(-n3ncn(C(C)C)c3=O)cc2)CC1` (centres unmarked) [Compound 115] the figure was 0.316 to 3.16 µM.
With `C=CCNC(=O)C(c1ccccc1)N1CCN(c2ccc(-n3ncn(C(C)C)c3=O)cc2)CC1` (centres unmarked) [Compound 116] the figure was 0.316 to 3.16 µM.
Under `COCCNC(=O)C(c1ccccc1)N1CCN(c2ccc(-n3ncn(C(C)C)c3=O)cc2)CC1` (centres unmarked) [Compound 117] stands 0.316 to 3.16 µM; under `CCCCNC(=O)C(c1ccccc1)N1CCN(c2ccc(-n3ncn(C(C)C)c3=O)cc2)CC1` (centres unmarked) [Compound 118], 0.316 to 3.16 µM; under `CC(C)CNC(=O)C(c1ccccc1)N1CCN(c2ccc(-n3ncn(C(C)C)c3=O)cc2)CC1` (centres unmarked) [Compound 119], 0.316 to 3.16 µM.
Regarding `CCCCCNC(=O)C(c1ccccc1)N1CCN(c2ccc(-n3ncn(C(C)C)c3=O)cc2)CC1` (centres unmarked) [Compound 120], the IC50 was 0.316 to 3.16 µM.
Take `CC(C)n1cnn(-c2ccc(N3CCN(C(C(=O)NCc4ccccn4)c4ccccc4)CC3)cc2)c1=O` (centres unmarked) [Compound 121]: the IC50 is 0.316 to 3.16 µM.
Under `CC(C)n1cnn(-c2ccc(N3CCN(C(C(=O)NCC(F)(F)F)c4ccccc4)CC3)cc2)c1=O` (centres unmarked) [Compound 122] stands 0.316 to 3.16 µM; under `CC(C)n1cnn(-c2ccc(N3CCN(C(C(=O)NCc4ccccc4)c4ccccc4)CC3)cc2)c1=O` (centres unmarked) [Compound 123], 0.0316 to 0.316 µM.
Under `CCCn1ncn(-c2ccc(N3CCN(C(C(=O)Nc4ccccc4)c4ccccc4)CC3)cc2)c1=O` (centres unmarked) [Compound 124] stands 0.0316 to 0.316 µM; under `Cc1cnc(NC(=O)C(c2ccccc2)N2CCN(c3ccc(-n4cnn(C(C)C)c4=O)cc3)CC2)s1` (centres unmarked) [Compound 125], 0.0316 to 0.316 µM.
With `CC(C)n1ncn(-c2ccc(N3CCN(C(C(=O)NCc4ccc(N)cc4)c4ccccc4)CC3)cc2)c1=O` (centres unmarked) [Compound 126] the figure was 0.316 to 3.16 µM; with `CC(C)n1ncn(-c2ccc(N3CCN(C(C(=O)NCc4nc5ccccc5[nH]4)c4ccccc4)CC3)cc2)c1=O` (centres unmarked) [Compound 127], 0.316 to 3.16 µM.
Turning to `CCCNC(=O)C(CN1CCN(c2ccc(-n3cnn(C(C)C)c3=O)cc2)CC1)c1ccccc1` (centres unmarked) [Compound 128], the IC50 is 0.0316 to 0.316 µM.
In the case of `CC(C)n1ncn(-c2ccc(N3CCN(CC(C(=O)Nc4ccccc4)c4ccccc4)CC3)cc2)c1=O` (centres unmarked) [Compound 129], the half-inhibitory concentration (IC50) was 0.316 to 3.16 µM.
Under `CC(C)n1ncn(-c2ccc(N3CCN(CC(C(=O)NCc4ccccc4)c4ccccc4)CC3)cc2)c1=O` (centres unmarked) [Compound 130] stands 0.316 to 3.16 µM; under `COCCNC(=O)C(c1ccccc1)N1CCN(c2ccc(-n3cnn(C(C)C)c3=O)cc2)CC1` (centres unmarked) [Compound 131], 0.316 to 3.16 µM.
Turning to `CC(C)n1ncn(-c2ccc(N3CCN(C(C(=O)NCCC#N)c4ccccc4)CC3)cc2)c1=O` (centres unmarked) [Compound 132], the IC50 was 0.316 to 3.16 µM.
With `CCNC(=O)C(c1ccccc1)(c1ccccc1)N1CCN(c2ccc(-n3cnn(C(C)C)c3=O)cc2)CC1` [Compound 133] the figure was 0.316 to 3.16 µM.
Under `CCCNC(=O)C(c1ccccc1)(c1ccccc1)N1CCN(c2ccc(-n3cnn(C(C)C)c3=O)cc2)CC1` [Compound 134] stands 0.316 to 3.16 µM; under `CC(C)NC(=O)C(c1ccccc1)(c1ccccc1)N1CCN(c2ccc(-n3cnn(C(C)C)c3=O)cc2)CC1` [Compound 135], 0.316 to 3.16 µM.
As to `CNC(=O)C(c1ccccc1)N1CCN(c2ccc(-n3cnn(C(C)C)c3=O)cc2)CC1` (centres unmarked) [Compound 136], the IC50 is 0.316 to 3.16 µM.
With `CC(C)n1ncn(-c2ccc(N3CCN(C(C(=O)N(C)C)c4ccccc4)CC3)cc2)c1=O` (centres unmarked) [Compound 137] the figure was 0.316 to 3.16 µM; with `CCOC(=O)C(CN1CCN(c2ccc(-n3cnn(C(C)C)c3=O)cc2)CC1)c1ccccc1` (centres unmarked) [Compound 138], 0.316 to 3.16 µM.
Consider `CCNC(=O)C(c1ccccc1)N1CCC(c2ccc(-n3cnn(C(C)C)c3=O)cc2)CC1` (centres unmarked) [Compound 139], for which the half-maximal inhibitory concentration (IC50) is 0.0316 to 0.316 µM.
Take `CC(C)NC(=O)C(c1ccccc1)N1CCC(c2ccc(-n3cnn(C(C)C)c3=O)cc2)CC1` (centres unmarked) [Compound 140]: the concentration for half-maximal inhibition (IC50) is 0.0316 to 0.316 µM.
With `CNC(=O)C(c1ccccc1)N1CCC(c2ccc(-n3cnn(C(C)C)c3=O)cc2)CC1` (centres unmarked) [Compound 142], the IC50 is 0.0316 to 0.316 µM.
Under `CC(C)n1ncn(-c2ccc(C3CCN(C(C(=O)NCC(F)(F)F)c4ccccc4)CC3)cc2)c1=O` (centres unmarked) [Compound 143] stands 0.0316 to 0.316 µM.
Regarding `CC(C)n1ncn(-c2ccc(C3CCN(C(C(=O)N(C)C)c4ccccc4)CC3)cc2)c1=O` (centres unmarked) [Compound 144], the IC50 was 0.316 to 3.16 µM.
`CC(C)n1ncn(-c2ccc(N3CCN(C(C(N)=O)c4ccccc4)CC3)cc2)c1=O` (centres unmarked) [Compound 145]: the IC50 is 0.316 to 3.16 µM.
For the molecule `COC(=O)C(c1ccccc1)N1CCN(c2ccc(-n3cnn(C(C)C)c3=O)cn2)CC1` (centres unmarked) [Compound 146], the IC50 was 0.316 to 3.16 µM.
Under `CC(C)n1ncn(-c2ccc(N3CCN(CCC(C(=O)N(C)C)(c4ccccc4)c4ccccc4)CC3)cc2)c1=O` [Compound 147] stands 0.316 to 3.16 µM; under `CCCNC(=O)C(c1ccccc1)C1CCN(c2ccc(-n3cnn(CC)c3=O)cc2)CC1` (centres unmarked) [Compound 148], 0.316 to 3.16 µM; under `CCCNC(=O)C(c1ccccc1)C1CCN(c2ccc(-n3cnn(CCC)c3=O)cc2)CC1` (centres unmarked) [Compound 149], 0.316 to 3.16 µM.
On to `CCCCn1ncn(-c2ccc(N3CCC(C(C(=O)NCCC)c4ccccc4)CC3)cc2)c1=O` (centres unmarked) [Compound 150], for which the half-inhibitory concentration (IC50) is 0.0316 to 0.316 µM.
With `CCCCCn1ncn(-c2ccc(N3CCC(C(C(=O)NCCC)c4ccccc4)CC3)cc2)c1=O` (centres unmarked) [Compound 151], the IC50 is 0.0316 to 0.316 µM.
`C=CCn1ncn(-c2ccc(N3CCC(C(C(=O)NCCC)c4ccccc4)CC3)cc2)c1=O` (centres unmarked) [Compound 152]: the IC50 is 0.316 to 3.16 µM.
With `CCCNC(=O)C(c1ccccc1)C1CCN(c2ccc(-n3cnn(CC(C)C)c3=O)cc2)CC1` (centres unmarked) [Compound 153] the figure was 0.0316 to 0.316 µM.
With `CCCNC(=O)C(c1ccccc1)C1CCN(c2ccc(-n3cnn(CC4CC4)c3=O)cc2)CC1` (centres unmarked) [Compound 154] the figure was 0.0316 to 0.316 µM; with `CCCNC(=O)C(c1ccccc1)C1CCN(c2ccc(-n3cnn(Cc4ccccc4)c3=O)cc2)CC1` (centres unmarked) [Compound 155], 0.0316 to 0.316 µM; with `CCCCn1ncn(-c2ccc(N3CCC(C(C(=O)NCc4ccccc4)c4ccccc4)CC3)cc2)c1=O` (centres unmarked) [Compound 156], 0.0316 to 0.316 µM.
With `CCCCCn1ncn(-c2ccc(N3CCC(C(C(=O)NCc4ccccc4)c4ccccc4)CC3)cc2)c1=O` (centres unmarked) [Compound 157] the figure was 0.0316 to 0.316 µM.
Regarding `O=C(NCc1ccccc1)C(c1ccccc1)C1CCN(c2ccc(-n3cnn(Cc4ccccc4)c3=O)cc2)CC1` (centres unmarked) [Compound 158], the IC50 was 0.0316 to 0.316 µM.
For the molecule `COC(=O)C(c1ccccc1)N1CCN(c2ccc(-n3nc(C)n(C(C)C)c3=O)cc2)CC1` (centres unmarked) [Compound 159], the IC50 was 0.316 to 3.16 µM.
With `CC(C)n1ncn(-c2ccc(N3CCN(CCCC(C(=O)Nc4ccccc4)c4ccccc4)CC3)cc2)c1=O` (centres unmarked) [Compound 160], the IC50 was 0.316 to 3.16 µM.
With `CCNC(=O)C(CCN1CCN(c2ccc(-n3cnn(C(C)C)c3=O)cc2)CC1)c1ccccc1` (centres unmarked) [Compound 161], the concentration for half-maximal inhibition (IC50) was 0.316 to 3.16 µM.
With `CC(C)n1ncn(-c2ccc(N3CCN(CCC(C(=O)NCc4ccccc4)c4ccccc4)CC3)cc2)c1=O` (centres unmarked) [Compound 162] the figure was 0.316 to 3.16 µM.
Take `CCNC(=O)C(c1ccccc1)N1CCN(c2ccc(-n3cnn(C(C)C)c3=O)cc2)CC1` (centres unmarked) [Compound 163]: the IC50 is 0.0316 to 0.316 µM.
With `CCCNC(=O)C(c1ccccc1)N1CCN(c2ccc(-n3cnn(C(C)C)c3=O)cc2)CC1` (centres unmarked) [Compound 164] the figure was 0.0316 to 0.316 µM; with `CC(C)n1ncn(-c2ccc(N3CCN(C(C(=O)NCc4ccccc4)c4ccccc4)CC3)cc2)c1=O` (centres unmarked) [Compound 165], 0.316 to 3.16 µM.
